# Results published in ChEMBL document CHEMBL2074410, “Chelerythrine stimulates GSH transport by rat Mrp2 (Abcc2) expressed in canine kidney cells” (Am J Physiol Gastrointest Liver Physiol, 2003).
# Target: ATP-binding cassette sub-family C member 2 (Rattus norvegicus, UniProt Q63120)
# Assay: TP_TRANSPORTER: transcellular transport in MDCKII(+GSH)
# Type: functional, cell-based
# Conditions: dog, mdck-ii
# Chain of ATP-binding cassette sub-family C member 2 (Q63120 whole entry): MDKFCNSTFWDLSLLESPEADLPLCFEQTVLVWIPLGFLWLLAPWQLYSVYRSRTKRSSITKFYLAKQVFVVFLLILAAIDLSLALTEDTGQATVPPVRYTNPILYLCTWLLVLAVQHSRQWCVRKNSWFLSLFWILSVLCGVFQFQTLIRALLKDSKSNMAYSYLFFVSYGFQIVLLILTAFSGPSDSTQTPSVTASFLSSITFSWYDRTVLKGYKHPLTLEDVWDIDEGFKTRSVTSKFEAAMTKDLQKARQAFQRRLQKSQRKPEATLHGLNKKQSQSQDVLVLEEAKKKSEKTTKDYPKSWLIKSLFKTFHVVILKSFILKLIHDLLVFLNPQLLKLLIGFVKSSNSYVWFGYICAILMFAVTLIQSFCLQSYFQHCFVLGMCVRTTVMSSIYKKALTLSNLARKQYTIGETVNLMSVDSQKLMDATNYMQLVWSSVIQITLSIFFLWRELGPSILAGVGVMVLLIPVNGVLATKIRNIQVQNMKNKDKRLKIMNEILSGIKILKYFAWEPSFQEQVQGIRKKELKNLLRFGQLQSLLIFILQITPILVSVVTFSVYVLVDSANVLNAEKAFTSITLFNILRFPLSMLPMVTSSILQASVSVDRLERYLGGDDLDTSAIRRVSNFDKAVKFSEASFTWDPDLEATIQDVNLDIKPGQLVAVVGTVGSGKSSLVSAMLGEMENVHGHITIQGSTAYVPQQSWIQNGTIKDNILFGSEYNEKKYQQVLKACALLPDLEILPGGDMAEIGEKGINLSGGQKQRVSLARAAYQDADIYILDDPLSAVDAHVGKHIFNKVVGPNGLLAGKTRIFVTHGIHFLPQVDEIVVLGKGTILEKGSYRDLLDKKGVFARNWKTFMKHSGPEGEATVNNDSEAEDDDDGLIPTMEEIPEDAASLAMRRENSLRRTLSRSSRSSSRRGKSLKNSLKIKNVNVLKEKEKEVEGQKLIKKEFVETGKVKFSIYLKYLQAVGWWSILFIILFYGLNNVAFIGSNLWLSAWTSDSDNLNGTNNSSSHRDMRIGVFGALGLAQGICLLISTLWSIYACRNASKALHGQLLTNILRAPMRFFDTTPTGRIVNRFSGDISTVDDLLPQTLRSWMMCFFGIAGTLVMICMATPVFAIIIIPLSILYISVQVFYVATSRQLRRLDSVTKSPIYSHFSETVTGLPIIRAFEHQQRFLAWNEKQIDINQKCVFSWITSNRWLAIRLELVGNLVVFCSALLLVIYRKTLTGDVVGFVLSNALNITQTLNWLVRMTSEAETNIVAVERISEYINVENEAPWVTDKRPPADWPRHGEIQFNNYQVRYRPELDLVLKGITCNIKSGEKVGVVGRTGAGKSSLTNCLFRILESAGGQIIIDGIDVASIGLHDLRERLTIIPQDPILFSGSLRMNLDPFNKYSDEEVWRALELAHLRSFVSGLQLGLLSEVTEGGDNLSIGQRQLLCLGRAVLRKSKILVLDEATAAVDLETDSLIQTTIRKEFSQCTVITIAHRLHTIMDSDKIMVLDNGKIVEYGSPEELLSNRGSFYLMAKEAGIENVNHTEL
structure (smiles),measurement,value
COc1ccc2c(c[n+](C)c3c4cc5c(cc4ccc23)OCO5)c1OC [CHELERYTHRINE],Activity,substrate []
